Here are results for one compound from patent US11352371B2, “Thienopyrimidine derivatives as ACC inhibitors and uses thereof” (Gilead Sciences, Inc., priority 2019, dated 2022).

The nature of data set [1]: Preliminary study of systemic blood clearance after intravenous administration. The class given is in vivo. Particulars: monkeys, preliminary studies.
The next data set deals with monkey hepatocytes. Kind of data set: In vitro hepatic uptake in monkey hepatocytes. The class given is in vitro ADME. Particulars: data not shown. The protocol:
To further investigate the liver partitioning properties of the compound of Example 1, the compound was co-administered with rifampicin (RIF, pan-OATP inhibitor) in cynomolgus monkeys in vivo and hepatic uptake experiments were performed in monkey hepatocytes in vitro. […] Therefore the coadministration experiments as described below in more detail were conducted to administer Example 1 compound orally (5 mg/kg) in the absence and presence of IV administration of RIF (30 mg/kg).

Another data set relates to HepG2 cells. Kind of data set: In vitro De Novo Lipogenesis (DNL) assay, 13C-acetate incorporation into palmitic acid. The class given is cell-based. Particulars: Homo sapiens, 1 hour preincubation, 24 hours with 10 mM 13C-labeled acetate. In short, it runs like this:
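HepG2 cells were preincubated with compound for 1 h, then given 10 mM 13C-acetate for 24 h at 37 °C. Lipids were saponified with KOH/ethanol at 70 °C, and palmitate carrying 3–7 13C was quantified by RapidFire-QTOF MS. This signal was normalized to oleate and plotted against compound concentration.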

Broadly, the EC50 is the concentration that produces a half-maximal response.

As to `COc1ccccc1[C@H](Cn1c(=O)n(C(C)(C)C(=O)NS(=O)(=O)C2(C)CC2)c(=O)c2c(C)c(-c3ncco3)sc21)O[C@@H]1C[C@H]2CC[C@@H](C1)O2` [Example 1, 2-(1-((R)-2-(((1R,3s,5S)-8-oxabicyclo[3.2.1]octan-3-yl)oxy)-2-(2-methoxyphenyl)ethyl)-5-methyl-6-(oxazol-2-yl)-2,4-dioxo-1,4-dihydrothieno[2,3-d]pyrimidin-3(2H)-yl)-2-methyl-N-((1-methylcyclopropyl)sulfonyl)propanamide], the systemic blood clearance result in data set [1] is “higher than hepatic blood flow”. Besides, the hepatic uptake result with monkey hepatocytes was “strong hepatic uptake”. The EC50 in the data set with HepG2 cells was 1 nM.
